Measured values taken from ChEMBL document CHEMBL1122503 (J Med Chem, 1983).

Experiments:
physchem = details: 20% aqueous DMF
Description: pKa value determined spectrophotometrically in 20% aqueous DMF

Nucleic Acid [1] = test system: Nucleic Acid
Nucleic Acid [2] = test system: Nucleic Acid; remark: listed apart in the source
L1210 = assay: cells; details: Mus musculus, L1210, read-out: ID50
Description: Growth inhibition against cultured murine L1210 leukemia cells

pKa (physchem)	Log K (Nucleic Acid [1])	Log K (Nucleic Acid [2])	IC50 (L1210)	Structure (SMILES)
4.71	5.96	6.4	350 nM	COc1cc(NS(C)(=O)=O)ccc1Nc1c2ccc([N+](=O)[O-])cc2nc2c(C(N)=O)cccc12
4.71	6.4	6.3	200 nM	COc1cc(NS(C)(=O)=O)ccc1Nc1c2ccc(C)cc2nc2c(C(N)=O)cccc12
	5.39	6.4	850 nM	COc1cc(NS(C)(=O)=O)ccc1Nc1c2ccccc2nc2c(C(=O)NCC(N)=O)cccc12
4.53	6	6.69	460 nM	COc1cc(NS(C)(=O)=O)ccc1Nc1c2ccc(C)cc2nc2c(C(=O)NCC(N)=O)cccc12
	5.47	6.13	270 nM	COc1cc(NS(C)(=O)=O)ccc1Nc1c2ccccc2nc2c(C(N)=O)cccc12
4.71	5.71	6.65	303 nM	CNC(=O)c1cccc2c(Nc3ccc(NS(C)(=O)=O)cc3OC)c3ccc([N+](=O)[O-])cc3nc12
	5.83	5.97	22 nM	COc1ccc2c(Nc3ccc(NS(C)(=O)=O)cc3OC)c3ccccc3nc2c1
	5.54	6.18	270 nM	CNC(=O)c1cccc2c(Nc3ccc(NS(C)(=O)=O)cc3OC)c3ccccc3nc12

Further lines, the molecule ahead of its results:

Structure (SMILES)	pKa (physchem)	Log K (Nucleic Acid [1])	Log K (Nucleic Acid [2])	IC50 (L1210)
CNC(=O)c1cccc2c(Nc3ccc(NS(C)(=O)=O)cc3OC)c3ccc(Cl)cc3nc12	5.68	6.29	6.65	217 nM
COc1cc(NS(C)(=O)=O)ccc1Nc1c2ccccc2nc2cc(N)ccc12	9.5	6.21	6.13	5.5 nM
COc1cc(NS(C)(=O)=O)ccc1Nc1c2ccc(Cl)cc2nc2c(C(N)=O)cccc12	5.68	6.33	6.58	520 nM
COc1cc(NS(C)(=O)=O)ccc1Nc1c2ccccc2nc2cc(Br)ccc12		6.29	6.12	50 nM
COc1cc(NS(C)(=O)=O)ccc1Nc1c2ccccc2nc2cc(I)ccc12		6.35	6.2	50 nM
COc1cc(NS(C)(=O)=O)ccc1Nc1c2ccccc2nc2cc(C)ccc12		5.95	6.08	12 nM
COc1cc(NS(C)(=O)=O)ccc1Nc1c2ccccc2nc2ccccc12		5.57	5.65	
CNC(=O)c1cccc2c(Nc3ccc(NS(C)(=O)=O)cc3OC)c3ccc(N)cc3nc12		6.29	6.82	21 nM
CNC(=O)c1cccc2c(Nc3ccc(NS(C)(=O)=O)cc3OC)c3ccc(C)cc3nc12	4.71	6.22	6.68	170 nM
COc1cc(NS(C)(=O)=O)ccc1Nc1c2ccccc2nc2cc([N+](=O)[O-])ccc12	5.52	5.65	6.13	110 nM
COc1cc(NS(C)(=O)=O)ccc1Nc1c2ccccc2nc2cc(Cl)ccc12		6.06	5.98	70 nM
CNC(=O)c1cccc2c(Nc3ccc(NS(C)(=O)=O)cc3OC)c3ccc(OC)cc3nc12	4.82	6.38	6.82	68 nM
COc1cc(NS(C)(=O)=O)ccc1Nc1c2ccc(Cl)cc2nc2c(C(=O)NCC(N)=O)cccc12	5.5	6.06	6.83	890 nM
